Test results published in patent US12545896B2, “Growth inhibitor” (Orizuru Therapeutics, Inc., priority 2019, dated 2026).

Columns and labels:
[1] = system: insulin-producing cell population obtained by the differentiation from iPS cells (CHGA-negative cells; insulin-positive and NKX6.1-positive cells); test: Flow cytometry of insulin-producing cell population treated with PLK inhibitor for last 4 days of differentiation (Example 1); type: cell-based; details: 3 μM; for Proportion of CHGA-negative and Ki67-negative cells / Proportion of CHGA-negative and Ki67-positive cells / Proportion of insulin-positive and NKX6.1-positive cells: 4 days treatment, flow cytometry
Excerpt: The number of CHGA-negative (and Ki67-positive or Ki67-negative) cells in the cell population obtained by each of the above methods 1) and 2) was counted by flow cytometry to determine the proportion of unintended cells, that is, a CHGA-negative (and Ki67-positive or Ki67-negative) rate, in each cell population.
The number of insulin-positive and NKX6.1-positive cells in the cell population obtained by each of the above methods 1) and 2) was counted by flow cytometry to determine the proportion of the cells of interest, that is, insulin-positive and NKX6.1-positive cells, in each method.

[2] = system: insulin-producing cell population obtained by the differentiation from iPS cells (CHGA-negative cells; insulin-positive and NKX6.1-positive cells); test: Insulin-producing cell population treated with PLK inhibitor for 7 days in 30 mL reactor for culture (Example 2); type: cell-based; details: 3 μM, 7 days treatment
Description: Specifically, the endocrine progenitor cell population obtained by the differentiation from iPS cells was cultured for 4 days in a medium for induction of differentiation in a 30 mL reactor for culture and thereby differentiated into an insulin-producing cell population.
For a control, the endocrine progenitor cell population obtained by the differentiation from iPS cells was cultured for 11 days in a medium for induction of differentiation in a 30 mL reactor for culture and thereby differentiated into an insulin-producing cell population.

[3] = last 4 days of differentiation into insulin-producing cells

COc1ccc2c(c1)[C@@]1(C[C@@H]1c1ccc3c(/C=C/c4ccc(CN5C[C@@H](C)O[C@@H](C)C5)cc4)n[nH]c3c1)C(=O)N2 [CAS1338800-06-8, (1S,2R)-2-[3-[(1E)-2-[4-[[(2R,6S)-2,6-dimethyl-4-morpholinyl]methyl]phenyl]ethenyl]-1H-indazol-6-yl]-5′-methoxy-spiro[cyclopropane-1,3′-[^3H]indol]-2′(1′H)-one]
Proportion of CHGA-negative and Ki67-negative cells ([1]; first experiment): 11.4% | Proportion of CHGA-negative and Ki67-positive cells ([1]; first experiment): 0.8% | Proportion of insulin-positive and NKX6.1-positive cells ([1]; first experiment): 22.4% | Proportion of CHGA-negative and Ki67-negative cells ([1]; second experiment): 12.4% | Proportion of CHGA-negative and Ki67-positive cells ([1]; second experiment): 0.2% | Proportion of insulin-positive and NKX6.1-positive cells ([1]; second experiment): 23.0% | Proportion of CHGA-negative cells (both Ki67-positive and Ki67-negative) as compared with a control [1, 3]: markedly decreased | Proportion of the cells of interest (insulin-positive and NKX6.1-positive cells) as compared with a control [1, 3]: markedly increased | Proportion of CHGA-negative cells (both Ki67-positive and Ki67-negative) as compared with a control [2]: markedly decreased | Proportion of insulin-positive (and NKX6.1-positive) cells as compared with a control [2]: markedly increased
